Assay results taken from paper PMC12143348, “Rapid and reversible fluorescent probe enables repeated snapshot imaging of AMPA receptors during synaptic plasticity” (Science Advances, 2025).
Read-outs that look alike come from different tables or passages of the source.

What was measured:
GluA2flip(Q) = target: T1, GluA2flip(Q) (Mus musculus, UniProt P23819, DEL765-802); test: Concentration-dependent binding of fluorophore-ligand conjugates, confocal live imaging of HEK293T cells expressing GluA2
T1 construct: expressed in transfected cells; host or cells: HEK293T
T1 sequence (P23819 with tags, fused parts or gaps isoform P23819-4 DEL765-802): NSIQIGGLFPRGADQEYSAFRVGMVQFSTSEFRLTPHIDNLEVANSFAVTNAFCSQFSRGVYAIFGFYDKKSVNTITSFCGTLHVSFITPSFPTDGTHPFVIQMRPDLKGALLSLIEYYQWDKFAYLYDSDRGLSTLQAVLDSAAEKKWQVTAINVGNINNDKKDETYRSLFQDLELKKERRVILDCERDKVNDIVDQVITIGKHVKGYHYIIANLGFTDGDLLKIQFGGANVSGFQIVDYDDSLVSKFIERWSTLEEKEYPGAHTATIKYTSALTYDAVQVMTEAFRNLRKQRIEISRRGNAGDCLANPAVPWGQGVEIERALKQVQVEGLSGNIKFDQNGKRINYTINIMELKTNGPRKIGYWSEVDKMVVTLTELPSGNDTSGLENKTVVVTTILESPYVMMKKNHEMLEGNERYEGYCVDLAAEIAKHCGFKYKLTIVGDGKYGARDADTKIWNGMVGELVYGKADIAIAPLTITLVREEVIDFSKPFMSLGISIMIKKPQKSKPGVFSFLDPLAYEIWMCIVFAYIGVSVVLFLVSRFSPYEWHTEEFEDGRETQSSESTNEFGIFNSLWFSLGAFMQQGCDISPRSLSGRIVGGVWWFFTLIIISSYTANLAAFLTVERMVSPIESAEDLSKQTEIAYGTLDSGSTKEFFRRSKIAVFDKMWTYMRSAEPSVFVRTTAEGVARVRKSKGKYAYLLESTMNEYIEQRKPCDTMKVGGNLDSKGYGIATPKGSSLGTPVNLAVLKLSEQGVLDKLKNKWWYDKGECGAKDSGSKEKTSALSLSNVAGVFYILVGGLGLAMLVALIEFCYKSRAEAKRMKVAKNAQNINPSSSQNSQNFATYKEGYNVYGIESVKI

GluA1 = GluA1 (Mus musculus, UniProt P23818); test: Concentration-dependent binding of PFQX1(AF488), confocal live imaging of HEK293T cells expressing GluA1; conditions: n = 3, mean ± s.e.m., read-out: Kd / Affinity of PFQX1(AF488) to GluA1
GluA1, sequence (P23818 19-907): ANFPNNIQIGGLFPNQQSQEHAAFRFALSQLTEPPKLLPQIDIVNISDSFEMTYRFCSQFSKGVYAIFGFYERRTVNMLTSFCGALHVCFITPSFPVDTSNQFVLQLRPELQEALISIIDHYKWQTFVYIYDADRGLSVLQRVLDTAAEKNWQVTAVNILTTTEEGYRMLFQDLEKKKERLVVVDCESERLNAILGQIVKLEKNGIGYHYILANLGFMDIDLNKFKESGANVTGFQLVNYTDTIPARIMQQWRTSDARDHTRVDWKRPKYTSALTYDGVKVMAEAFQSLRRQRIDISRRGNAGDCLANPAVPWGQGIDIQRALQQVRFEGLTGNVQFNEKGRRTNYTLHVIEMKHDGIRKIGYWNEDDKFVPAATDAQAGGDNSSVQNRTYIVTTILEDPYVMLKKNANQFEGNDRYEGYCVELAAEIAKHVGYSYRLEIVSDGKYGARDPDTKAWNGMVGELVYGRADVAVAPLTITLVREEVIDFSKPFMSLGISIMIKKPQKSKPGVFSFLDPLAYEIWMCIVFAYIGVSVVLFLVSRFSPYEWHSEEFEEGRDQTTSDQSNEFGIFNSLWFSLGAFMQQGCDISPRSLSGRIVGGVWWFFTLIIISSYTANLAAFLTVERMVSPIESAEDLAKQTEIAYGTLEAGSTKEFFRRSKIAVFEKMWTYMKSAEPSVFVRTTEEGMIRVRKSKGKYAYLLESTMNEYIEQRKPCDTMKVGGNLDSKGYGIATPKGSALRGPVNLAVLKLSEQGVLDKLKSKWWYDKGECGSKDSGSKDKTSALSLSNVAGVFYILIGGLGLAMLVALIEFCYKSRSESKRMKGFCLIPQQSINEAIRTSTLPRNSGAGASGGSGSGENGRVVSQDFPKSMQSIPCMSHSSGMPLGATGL
Method: (§1) HEK293T cells were cotransfected with plasmids for AMPAR [5′UTR-GluA1^flip(R)-3′UTR, GluA2^flip(Q)-3′UTR, GluA3^flip(Q) (Y454A/R461G), and GluA4^flip(Q)], kainate receptor [GluK2(Q)], auxiliary subunits, or the control vector and transfection marker (EFGP-F or mCherry-F). Fluorophore-ligand conjugates were diluted in Hepes-buffered saline (HBS) buffer [20 mM Hepes (pH 7.4), 107 mM NaCl, 6 mM KCl, 1.2 mM MgSO4, 2 mM CaCl2, and 11.5 mM glucose] and added to the cells. Confocal live imaging was performed with LSM900 (Carl Zeiss) equipped with a 63×, numerical aperture (NA) = 1.4 oil-immersion objective. Fluorescence images were acquired by excitation at 405, 488, 561, or 640 nm derived from diode lasers.
(§2) For evaluating the concentration dependency of fluorophore-ligand conjugates, 0.1 nM probe in HBS was added to the dish. Then, probes in HBS were added stepwise to the dish to a final concentration of 0.3, 1, 3, 10, 30, 100, 300, 1000, and 3000 nM. Cell surface fluorescence intensity was quantified from the line scans of transfection marker positive cells and calculated with subtraction of background by ZEN blue software (Carl Zeiss). The membrane intensity was fitted with KaleidaGraph (Synergy software) to calculate the equilibrium constant value using the following equation: a + (b − a)/(1 + (x/c)^d). The equilibrium constant is regarded as the Kd in this study.

GluA4 = target: T2, GluA4 (Mus musculus, UniProt Q9Z2W8); test: Concentration-dependent binding of PFQX1(AF488), confocal live imaging of HEK293T cells expressing GluA4; conditions: n = 3, read-out: Kd / Affinity of PFQX1(AF488) to GluA4
T2 construct: expressed in transfected cells; host or cells: HEK293T
T2 sequence (Q9Z2W8 21-902): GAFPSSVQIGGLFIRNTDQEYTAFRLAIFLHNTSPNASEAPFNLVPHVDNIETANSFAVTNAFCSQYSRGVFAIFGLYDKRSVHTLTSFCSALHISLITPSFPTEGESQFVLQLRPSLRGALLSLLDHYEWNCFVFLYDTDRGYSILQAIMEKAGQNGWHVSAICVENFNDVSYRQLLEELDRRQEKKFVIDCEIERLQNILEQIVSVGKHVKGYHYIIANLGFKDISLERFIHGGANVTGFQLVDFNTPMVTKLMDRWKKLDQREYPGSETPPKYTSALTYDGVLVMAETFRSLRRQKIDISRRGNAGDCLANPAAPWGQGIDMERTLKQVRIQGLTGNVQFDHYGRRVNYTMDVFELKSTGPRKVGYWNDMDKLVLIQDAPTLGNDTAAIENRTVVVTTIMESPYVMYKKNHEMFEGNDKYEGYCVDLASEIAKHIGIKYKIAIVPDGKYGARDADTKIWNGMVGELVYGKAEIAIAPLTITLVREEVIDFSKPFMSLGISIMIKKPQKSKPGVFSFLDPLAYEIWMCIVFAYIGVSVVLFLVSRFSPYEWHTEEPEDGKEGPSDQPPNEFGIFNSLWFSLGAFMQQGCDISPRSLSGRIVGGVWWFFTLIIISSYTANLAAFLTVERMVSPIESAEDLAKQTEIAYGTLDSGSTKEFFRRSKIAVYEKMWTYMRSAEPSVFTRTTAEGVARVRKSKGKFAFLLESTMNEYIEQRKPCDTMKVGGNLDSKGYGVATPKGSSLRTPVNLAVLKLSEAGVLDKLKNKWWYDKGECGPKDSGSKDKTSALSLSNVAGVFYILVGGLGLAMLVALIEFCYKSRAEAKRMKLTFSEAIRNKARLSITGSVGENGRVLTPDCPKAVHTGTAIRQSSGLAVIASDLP
Method: as §1, §2

native AMPARs = test: Concentration-dependent binding of PFQX1(AF488) to AMPARs in primary cultured hippocampal neurons; set-up: species or system mouse; conditions: for Kd: n = 3
Method: We modified the Banker’s culture method of hippocampal neurons ([59]). Glass-bottom dishes (14 mm φ, Matsunami) were coated with poly-D-lysine (Sigma-Aldrich) and washed three times with sterile dH2O. Hippocampi from 16-day-old ICR mouse embryos were aseptically dissected and digested with 0.25% (w/v) trypsin (Nacalai Tesque) for 20 min at 37°C. The cells were resuspended in Neurobasal Plus medium supplemented with 10% FBS, 1 mM GlutaMAX I (Invitrogen), penicillin (100 U/ml), and streptomycin (100 μg/ml) and filtered by Cell Strainer (100 μm, Falcon) followed by centrifugation at 1000 rpm for 5 min. The cells were resuspended in Neurobasal Plus medium supplemented with 2% of B-27 Plus Supplement, 1 mM GlutaMAX I (Invitrogen), penicillin (100 U/ml), and streptomycin (100 μg/ml) and plated at a density of 2 × 10^4 cells on glass-bottom dishes. Precultured cortical astrocytes on glass coverslips (13 mm φ) were transferred to the dishes so that astrocytes were faced to neurons. The cultures were maintained at 37°C in a 95% air and 5% CO2 humidified incubator. The culture medium was replaced every 7 days, and the neurons were used at 16 to 18 days in vitro (DIV).
Calcein Red AM (50 nM; AAT Bioquest) was added to the cultured neurons for 30 min at 37°C to visualize the intracellular region. The cells were washed with Hepes-based ACSF [25 mM Hepes (pH 7.4), 140 mM NaCl, 5 mM KCl, 1.3 mM CaCl2, 2 mM MgCl2, and 33 mM glucose], and 100 nM PFQX1(AF488) in Hepes-based ACSF was added to the dish.
For evaluating the concentration dependency of PFQX1(AF488), the cells were treated with 1 nM PFQX1(AF488). Then, PFQX1(AF488) in Hepes-based ACSF was added stepwise to the dish to a final concentration of 3, 10, 30, 100, 300, and 1000 nM. To quantify the concentration dependency after cLTP, the procedure described above was conducted after cLTP stimulation as described in the section “cLTP and quantification of cell-surface AMPARs.” The average intensity of ROIs set on spines was calculated by ZEN blue software after subtracting background fluorescence. The intensity was fitted with KaleidaGraph to calculate the equilibrium constant value using the following equation: a + (b − a)/(1 + (x/c)^d). The equilibrium constant is regarded as the Kd in this study.

GluA2 = target: T3, GluA2 (Mus musculus, UniProt P23819, DEL765-802); test: Kinetics and reversibility of PFQX1(AF488) binding in HEK293T cells expressing GluA2; conditions: 100 nM probe
T3 construct: expressed in transfected cells; host or cells: HEK293T
T3 sequence (P23819 with tags, fused parts or gaps isoform P23819-4 DEL765-802): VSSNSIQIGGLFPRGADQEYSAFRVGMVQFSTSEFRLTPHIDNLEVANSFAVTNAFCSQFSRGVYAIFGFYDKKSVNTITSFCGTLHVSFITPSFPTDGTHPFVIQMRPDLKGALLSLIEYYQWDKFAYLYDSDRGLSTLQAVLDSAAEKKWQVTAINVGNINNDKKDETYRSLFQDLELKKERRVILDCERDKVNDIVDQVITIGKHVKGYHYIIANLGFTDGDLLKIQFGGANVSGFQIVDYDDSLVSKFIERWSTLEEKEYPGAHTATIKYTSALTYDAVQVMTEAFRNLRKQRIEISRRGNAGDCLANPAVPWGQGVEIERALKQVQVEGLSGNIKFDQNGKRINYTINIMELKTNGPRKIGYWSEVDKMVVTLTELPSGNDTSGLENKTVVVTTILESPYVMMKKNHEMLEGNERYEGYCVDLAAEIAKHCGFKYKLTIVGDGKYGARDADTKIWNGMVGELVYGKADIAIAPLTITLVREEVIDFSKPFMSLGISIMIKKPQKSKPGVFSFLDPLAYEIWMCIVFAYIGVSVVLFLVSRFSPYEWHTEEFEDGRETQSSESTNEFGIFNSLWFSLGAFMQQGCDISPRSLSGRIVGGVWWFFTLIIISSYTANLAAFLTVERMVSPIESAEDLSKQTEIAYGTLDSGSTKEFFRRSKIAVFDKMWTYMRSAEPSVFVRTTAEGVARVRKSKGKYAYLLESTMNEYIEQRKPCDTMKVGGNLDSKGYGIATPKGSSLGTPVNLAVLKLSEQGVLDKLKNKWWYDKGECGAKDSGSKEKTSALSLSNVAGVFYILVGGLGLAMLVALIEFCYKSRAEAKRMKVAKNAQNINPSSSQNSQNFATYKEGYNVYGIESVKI
Method: HEK293T cells were transfected with Halo-tag-GluA2^flip(Q)-3′UTR. The cells were incubated with 500 nM Halo-Tag ligand-Alexa647 [HTL(AF647)] for 15 min at room temperature. AF647 was used as a transfection marker. The cells were washed three times with HBS, and a cloning ring (16 mm φ) was placed on the dish to accelerate the diffusion of the probe solution. After the dish was set on the stage, 100 nM PFQX1(AF488) was added to inside the cloning ring and imaged at specified time points by confocal microscopy.
For evaluating reversibility, 100 nM PFQX1(AF488) in HBS was added to the dish. The cells were observed by confocal microscopy as the first image. Then, the cells were washed three times with HBS and scanned as the wash image. After removal of the buffer, 100 nM PFQX1(AF488) was re-treated, and the cells were scanned as the second image. To quantify the fluorescence intensity of the membrane, the average signal intensity of regions of interest (ROIs) set on the membrane was calculated after subtracting background fluorescence by ZEN blue software.

AMPARs = test: Kinetics and reversibility of PFQX1(AF488) binding in cultured hippocampal neurons; set-up: species or system mouse; conditions: 100 nM probe
Method: A cloning ring (16 mm φ) was placed on the dish to accelerate the diffusion of the probe solution. After the dish was set on the stage, the cells were treated with 100 nM PFQX1(AF488) and imaged at specified time points by confocal microscopy.
For evaluating reversibility, stained cells were observed by confocal microscopy as the first image. Then, the cells were washed three times with Hepes-based ACSF and scanned as the wash image. After removal of the buffer, 100 nM PFQX1(AF488) was re-treated, and the cells were scanned as the second image. To quantify the fluorescence intensity of spines, the average signal intensity of ROIs set on spines was calculated by ZEN blue software after subtracting background fluorescence.

cell-surface fluorescence / affinity to AMPARs (in words) (GluA2flip(Q); HEK293T cells expressing GluA2): high affinity
Kd (GluA2flip(Q); HEK293T cells expressing GluA2flip(Q), cell-surface fluorescence, mean ± SEM, n = 3, read-out: dissociation constant (Kd) / Affinity to GluA2): 37.2 ± 9.8 nM
Kd (GluA1): 78.7 ± 15.4 nM
Kd (GluA4): 20.2 ± 1.2 nM
fraction of AMPARs bound / suppressed by the probe (native AMPARs; 10 nM probe, from Fig. 4C): less than 10%
Kd (native AMPARs; cultured hippocampal neurons after cLTP stimulation, read-out: Kd value after cLTP): 72.4 ± 17.4 nM
Kd (native AMPARs; primary cultured hippocampal neurons, spine fluorescence, read-out: Kd / Affinity to native AMPARs): 97.5 ± 9.9 nM
time to saturation of cell-surface fluorescence after probe addition (GluA2): ≤ 20 s
reversibility of binding (medium exchange) (AMPARs): easily removed by medium exchange
time to saturation of fluorescent signals after probe addition (AMPARs): 10 s
Compound: N=c1ccc2c(-c3ccc(C(=O)NCc4ccn(-c5cc6c(cc5C(F)(F)F)[nH]c(=O)c(=O)n6CC(=O)O)c4)cc3C(=O)O)c3ccc(N)c(S(=O)(=O)O)c3oc-2c1S(=O)(=O)O [PFQX1(AF488)]
reversibility of binding (medium exchange) (GluA2): fluorescence from the cell surface was lost after the medium exchange
